Experimental data: patent US12691101B2, “Compound and method for preventing or treating of respiratory diseases comprising the same as an active ingredient” (YONSEI UNIVERSITY, UNIVERSITY - INDUSTRY FOUNDATION (UIF), priority 2019, dated 2026)

Biological target: T1, human wild-type (WT)-pendrin (Homo sapiens, UniProt O43511)
T1 construct: expressed in transfected cells
T1 sequence (O43511 1-780): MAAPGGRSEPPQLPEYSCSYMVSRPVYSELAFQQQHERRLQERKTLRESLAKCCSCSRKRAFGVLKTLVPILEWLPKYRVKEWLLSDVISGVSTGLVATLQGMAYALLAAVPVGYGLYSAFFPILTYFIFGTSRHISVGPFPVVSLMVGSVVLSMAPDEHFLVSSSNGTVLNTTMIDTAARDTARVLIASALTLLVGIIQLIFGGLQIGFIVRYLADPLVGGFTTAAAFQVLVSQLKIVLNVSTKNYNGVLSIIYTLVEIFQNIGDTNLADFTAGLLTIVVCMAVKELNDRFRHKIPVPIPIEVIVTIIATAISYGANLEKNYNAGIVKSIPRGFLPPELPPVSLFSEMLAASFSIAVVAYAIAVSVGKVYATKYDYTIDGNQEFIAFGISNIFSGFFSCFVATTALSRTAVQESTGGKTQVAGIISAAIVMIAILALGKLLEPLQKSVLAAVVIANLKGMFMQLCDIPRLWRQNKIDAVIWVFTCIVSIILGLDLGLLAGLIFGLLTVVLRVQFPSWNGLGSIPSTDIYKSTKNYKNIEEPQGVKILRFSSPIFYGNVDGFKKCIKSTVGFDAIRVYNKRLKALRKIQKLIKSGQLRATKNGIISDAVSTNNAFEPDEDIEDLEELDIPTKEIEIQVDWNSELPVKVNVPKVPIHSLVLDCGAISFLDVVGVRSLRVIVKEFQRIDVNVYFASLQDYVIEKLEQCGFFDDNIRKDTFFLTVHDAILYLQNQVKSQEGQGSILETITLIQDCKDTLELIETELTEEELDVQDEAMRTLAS
Experiment: Pendrin-mediated Cl^−/I^− exchange activity, YFP fluorescence in CHO-K1 cells
Assay type: cell-based
Conditions: for inhibition at 30 µM: CHO-K1, 30 μM, read-out: Pendrin inhibitory activity at 30 μM (%); for IC50: compounds showing pendrin inhibitory activity of 50% or more at 30 μM, read-out: IC50
Protocol: Chinese hamster ovary (CHO)-K1 cells were maintained in a DMEM medium containing 10% fetal bovine serum (FBS), 100 units/ml penicillin and 100 100 μg/ml streptomycin. CHO-K1 cells were stably transfected with pcDNA3.1 encoding halide sensor YFP-H148Q/I152L/F46L and human wild-type (WT)-pendrin. For distribution of primary culture of human nasal cavity epithelium (HNE) cells, passage-2 cells were seeded into transwell-transparent culture inserts with a pore size of 0.45 μm (Costar Co., Cambridge, MA) at a density of 2×10^5 cells/cm^2. The cells were maintained in a 1:1 mixture of Dulbecco's modified Eagle's medium (Lonza, Walkersville, MD) and bronchial epithelial growth medium (Lonza) supplemented with the following growth factors according to the manufacturer's instructions. After immersing the cells for the first 7 days, they were exposed to the apical air interface for the remainder of the culture period. After establishment of the air-liquid interface, the cells were used between 14 and 21 days. At all stages of culture, the cells were maintained at 37° C. under 5% CO2 in an air incubator.
CHO-K1 cells expressing human WT pendrin and YFP-F46L/H148Q/I152L were plated on a 96-well microplate at a density of 2×10^4 cells per well and cultured for 48 hours. Each well of the cell cultured 96-well plate was washed with PBS of 200 μL twice and was filled with HEPES buffer solution of 50 μL, respectively. […] After culturing at 37° C. for 10 minutes, the 96-well plate was positioned on FLUOstar Omega microplate reader (BMG Labtech, Ortenberg, Germany) for fluorescence analysis. By continuously (400 ms per point) recording fluorescence for 1 second (base line), each well was individually analyzed for pendrin-mediated I^− inflow, and then at 1 second, 50 μL of NaI-substituted HEPES buffer solution (NaI replacing NaCl) was added using a liquid injector and the YFP fluorescence was recorded for 5 seconds. The initial iodide inflow rate was determined from the initial slope of fluorescence by nonlinear regression, after injection the iodide (See FIG. 1).
For measurement of Cl^−/I^− exchange activity, YFP fluorescence was measured in pendrin and halide sensor YFP expressing CHO-K1 cells. Each well of the cell cultured 96-well plate was washed with PBS of 200 μL twice, and was filled with HEPES buffer solution (140 mM NaCl, 5 mM KCl, 1 mM MgCl2, 1 mM CaCl2, 10 mM glucose and 10 mM HEPES (pH 7.4)), respectively. […] After culturing at 37° C. for 10 minutes, the 96-well plate was positioned on FLUOstar Omega microplate reader (BMG Labtech, Ortenberg, Germany) for fluorescence analysis.
By continuously (400 ms per point) recording fluorescence for 1 second (base line), each well was individually analyzed for pendrin-mediated I^− inflow, and then at 1 second, 50 μL of NaI-substituted HEPES buffer solution (140 mM NaI, 5 mM KCl, 1 mM MgCl2, 1 mM CaCl2, 10 mM glucose and 10 mM HEPES (pH 7.4)) was added using a liquid injector and the YFP fluorescence was recorded for 5 seconds. The initial iodide inflow rate was determined from the initial slope of fluorescence by nonlinear regression, after injection the iodide.

Row | Compound | inhibition at 30 µM [%] | IC50 [µM]
1 | COc1ccccc1C1=NC(=Cc2cnn(C)c2)C(=O)O1 [F125, 2-(2-methoxyphenyl)-4-((1-methyl-1H-pyrazol-4-yl)methylene)oxazol-5(4H)-one] | 1 | 
2 | CC(=O)Nc1ccc(C2=NC(=Cc3cccs3)C(=O)O2)cc1 [F33, N-(4-(5-oxo-4-(thiophen-2-ylmethylene)-4,5-dihydrooxazol-2-yl)phenyl)acetamide] | 88.7 | 9.3 ± 0.68
3 | CC(C)c1ccc(C=C2N=C(c3cccc4ccccc34)OC2=O)cc1 [F62, 4-(4-Isopropylbenzylidene)-2-(naphthalen-1-yl)oxazol-5 (4H)-one] | 2.4 | 
4 | CC(C)(C)c1ccc(C2=NC(=Cc3ccsc3)C(=O)O2)cc1 [F9, 2-(4-(tert-butyl)phenyl)-4-(thiophen-3-ylmethylene)oxazol-5 (4H)-one] | 52.5 | 28.7 ± 2.25
5 | COc1ccccc1C1=NC(=Cc2ccc(Br)s2)C(=O)O1 [F117, 4-((5-Bromothiophen-2-yl)methylene)-2-(2-methoxyphenyl)oxazol-5(4H)-one] | 2.3 | 
6 | CC(C)NS(=O)(=O)c1ccc(C2=NC(=Cc3cccs3)C(=O)O2)cc1 [F36, N-isopropyl-4-(5-oxo-4-(thiophen-2-ylmethylene)-4,5-dihydrooxazol-2-yl)benzene sulfonamide] | 89.6 | 14.8 ± 2.01
7 | CCN(CC)S(=O)(=O)c1cccc(C2=NC(=Cc3cccs3)C(=O)O2)c1 [F112, N,N-diethyl-3-(5-oxo-4-(thiophen-2-ylmethylene)-4,5-dihydrooxazol-2-yl)benzene sulfonamide] | 3.1 | 
8 | CCCc1ccc(C2=NC(=Cc3ccco3)C(=O)O2)cc1 [F146, 4-(Furan-2-ylmethylene)-2-(4-propylphenyl)oxazol-5(4H)-one] | 26.1 | 
9 | Cc1ccc(C2=NC(=Cc3cn(-c4ccccc4)nc3-c3ccccc3)C(=O)O2)cc1 [F83, 4-((1,3-Diphenyl-1H-pyrazol-4-yl)methylene)-2-(p-tolyl)oxazol-5(4H)-one] | 2.4 | 
10 | Cc1ccc(C=C2N=C(c3ccc(C(C)(C)C)cc3)OC2=O)s1 [F96, 2-(4-(tert-butyl)phenyl)-4-((5-methylthiophen-2-yl)methylene)oxazol-5(4H)-one] | 3.4 | 
11 | O=C1OC(c2ccc(Cl)cc2)=NC1=Cc1cccs1 [F88, 2-(4-Chlorophenyl)-4-(thiophen-2-ylmethylene)oxazol-5(4H)-one] | 2.4 | 
12 | O=C1OC(c2ccc(Br)cc2)=NC1=Cc1ccsc1 [F51, 2-(4-Bromophenyl)-4-(thiophen-3-ylmethylene)oxazol-5(4H)-one] | 2.7 | 
13 | CC(C)(C)c1ccc(C2=NC(=Cc3ccncc3)C(=O)O2)cc1 [F41, 2-(4-(tert-butyl)phenyl)-4-(pyridin-4-ylmethylene)oxazol-5(4H)-one] | 27.5 | 
14 | O=C1OC(c2ccc(Cl)c([N+](=O)[O-])c2)=NC1=Cc1cccs1 [F91, 2-(4-Chloro-3-nitrophenyl)-4-(thiophen-2-ylmethylene)oxazol-5(4H)-one] | 3.9 | 
15 | CCCCOc1ccc(C(=O)NC(=Cc2cccs2)C(=O)O)cc1 [G36, 2-(4-Butoxybenzamido)-3-(thiophen-2-yl)acrylate] | 4.8 | 
16 | O=C1OC(c2ccccc2Cl)=NC1=Cc1cccs1 [F92, 2-(2-Chlorophenyl)-4-(thiophen-2-ylmethylene)oxazol-5(4H)-one] | 2.2 | 
17 | CCCc1ccc(C2=NC(=Cc3scnc3C)C(=O)O2)cc1 [F137, 4-((4-Methylthiazol-5-yl)methylene)-2-(4-propylphenyl)oxazol-5(4H)-one] | 3.1 | 
18 | COc1ccccc1C1=NC(=Cc2ccc(OCC(N)=O)cc2)C(=O)O1 [F128, 2-(4-((2-(2-methoxyphenyl)-5-oxooxazol-4(5H)-ylidene)methyl)phenoxy)acetamide] | 1.9 | 
19 | COc1ccc(C2=NC(=Cc3ccc(Cl)s3)C(=O)O2)cc1 [F99, 4-((5-Chlorothiophen-2-yl)methylene)-2-(4-methoxyphenyl)oxazol-5(4H)-one] | 2.4 | 
20 | CC(C)(C)c1ccc(C2=NC(=Cc3ccc(OCc4ccccc4)cc3)C(=O)O2)cc1 [F64, 4-(4-(Benzyloxy)benzylidene)-2-(4-(tert-butyl)phenyl)oxazol-5 (4H)-one] | 2.8 | 
21 | Cc1[nH]c2ccccc2c1C=C1N=C(c2ccc(C(C)(C)C)cc2)OC1=O [F3, 2-(4-(tert-butyl)phenyl)-4-((2-methyl-1H-indol-3-yl1)methylene)oxazol-5(4H)-one] | 4.3 | 
22 | O=C1OC(c2ccc3c(c2)OCO3)=NC1=Cc1cccs1 [F97, 2-(Benzo[d][1,3]dioxoyl-5-yl)-4-(thiophen-2-ylmethylene)oxazol-5(4H)-one] | 2.9 | 
23 | CC(C)(C)c1ccc(C2=NC(=Cc3cncs3)C(=O)O2)cc1 [F2, 2-(4-(tert-butyl)phenyl)-4-(thiazol-5-ylmethylene)oxazol-5(4H)-one] | 57.5 | 26.9 ± 2.95
24 | CSc1ccc(C=C2N=C(c3ccc(C(C)(C)C)cc3)OC2=O)cc1 [F43, 2-(4-(tert-butyl)phenyl)-4-(4-(methylthio)benzylidene)oxazol-5 (4H)-one] | 5.4 | 
25 | O=C1OC(c2ccc(C(F)(F)F)cc2)=NC1=Cc1ccsc1 [F18, 4-(Thiophen-3-ylmethylene)-2-(4-(trifluoromethyl)phenyl)oxazol-5(4H)-one] | 3.4 | 

Results, then the compound that gave them:

Row | inhibition at 30 µM [%] | IC50 [µM] | Compound
26 | 22.4 |  | CC(C)(C)c1ccc(C(=O)NC(=Cc2cccn2-c2ccccc2)C(=O)O)cc1 [G13, 2-(4-(tert-butyl)benzamido)-3-(1-phenyl-1H-pyrrol-2-yl)acrylate]
27 | 3.4 |  | COC(=O)C(=Cc1ccco1)NC(=O)c1ccc(Br)cc1 [G20, Methyl 2-(4-bromobenzamido)-3-(furan-2-yl)acrylate]
28 | 1.1 |  | COC(=O)C(=Cc1ccco1)NC(=O)c1ccc(C(F)(F)F)cc1 [G17, Methyl 3-(furan-2-yl)-2-(4-(trifluoromethyl)benzamido)acrylate]
29 | 42.1 |  | CC(C)(C)c1ccc(C(=O)NC(=Cc2csc3ccccc23)C(=O)O)cc1 [G25, 3-(Benzo[b]thiophen-3-yl)-2-(4-(tert-butyl)benzamido)acrylate]
30 | 88.6 | 13.4 ± 1.69 | CCCCCc1ccc(C(=O)NC(=Cc2cccs2)C(=O)O)cc1 [G40, 2-(4-Pentylbenzamido)-3-(thiophen-2-yl)acrylate]
31 | 2.5 |  | COC(=O)C(=Cc1cccn1-c1ccccc1)NC(=O)c1ccc(C(C)(C)C)cc1 [G14, Methyl 2-(4-(tert-butyl)benzamido)-3-(1-phenyl-1H-pyrrol-2-yl)acrylate]
32 | 3.4 |  | COC(=O)C(=Cc1ccc[nH]1)NC(=O)c1ccc(C(F)(F)F)cc1 [G15, Methyl 3-(1H-pyrrol-2-yl)-2-(4-(trifluoromethyl)benzamido)acrylate]
